# Measurements reported in ChEMBL document CHEMBL1123381, “Synthesis and antiviral evaluation of 1,4-dioxane nucleoside analogues related to nucleoside dialdehydes” (1986).
# pIC50: −log10 of the molar value. The source made the active and inactive calls. The calls are words filed in the database; no cut-off is given here.
# Legend:
# [1] = The compound was evaluated for cellular toxicity against [3H]thymidine incorporation into DNA of uninfected mouse L-cells; type: functional
# Vaccinia virus [2] = test: The compound was tested for inhibitory activity against vaccinia virus replication; NA=Not active; type: functional, organism-based; conditions: Orthopoxvirus vaccinia
# Vaccinia virus [3] = test: The compound was tested for inhibitory activity against vaccinia virus replication; type: functional; conditions: Orthopoxvirus vaccinia; read-out: ID50 (the source's name)
Compound,"[3H]thymidine incorporation, % of control [1]",ID50 (Vaccinia virus [2]),pIC50 (Vaccinia virus [3])
Nc1nc(O)c2ncn(C3COCC(CO)O3)c2n1 (stereo not drawn),99%,inactive,
Nc1ncnc2c1ncn2[C@@H](C=O)O[C@@H](C=O)CO,8.3%,,6.52
Nc1ncnc2c1ncn2C1COCC(CO)O1 (stereo not drawn),95%,inactive,
C=C(CO)OC(=C)n1cnc2c(N)ncnc21,104%,,4.52
